{
  "source": "paper PMC7105820",
  "about": "“Mutant ACVR1 Arrests Glial Cell Differentiation to Drive Tumorigenesis in Pediatric Gliomas” (Cancer Cell, 2020)",
  "biological_target": "T1, ACVR1 (Homo sapiens, UniProt Q04771)",
  "T1 sequence (Q04771 21-509)": "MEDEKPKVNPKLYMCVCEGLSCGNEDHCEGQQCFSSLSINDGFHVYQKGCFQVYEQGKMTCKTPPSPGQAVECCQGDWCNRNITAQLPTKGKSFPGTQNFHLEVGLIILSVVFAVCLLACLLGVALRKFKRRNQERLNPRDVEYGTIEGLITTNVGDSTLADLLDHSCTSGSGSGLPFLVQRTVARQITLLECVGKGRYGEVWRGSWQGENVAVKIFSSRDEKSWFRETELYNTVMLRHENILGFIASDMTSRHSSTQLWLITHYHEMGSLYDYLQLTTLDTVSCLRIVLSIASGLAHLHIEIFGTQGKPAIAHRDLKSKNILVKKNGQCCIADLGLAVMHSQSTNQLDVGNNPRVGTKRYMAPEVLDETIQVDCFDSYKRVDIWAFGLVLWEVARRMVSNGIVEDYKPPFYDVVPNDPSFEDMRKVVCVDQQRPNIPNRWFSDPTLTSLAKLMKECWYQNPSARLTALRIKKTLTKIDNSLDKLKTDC",
  "assay": "([…] Å) of the ACVR1-FKBP12 complex; IC50 from cellular NanoBRET target engagement (HEK-293)",
  "assay_type": "cell-based",
  "data": [
    {"smiles": "CCNc1cc(O)c2c(c1)/C=C/C[C@H](O)[C@H](O)C(=O)/C=C\\[C@@H](C)[C@H](C)OC2=O", "note": "[E6201, (3S,4R,5Z,8S,9S,11E)-14-(ethylamino)-8,9,16-trihydroxy-3,4-dimethyl-3,4,9,19-tetrahydro-1H-2-benzoxacyclotetradecine-1,7 (8H)-dione]", "values": [
      {"measurement": "IC50", "result": "~250", "unit": "nM"}
    ]}
  ]
}
